Assay results taken from patent publication US20210002650A1, “COMPOSITIONS AND METHODS FOR TREATING ALZHEIMER'S DISEASE” (University of Virginia Patent Foundation, priority 2019, published 2021).
Counter-ions that a name gives are not always drawn.

Key:
[1] = system: primary mouse cortical neurons; assay: AβO-induced neuronal cell cycle re-entry (CCR), cyclin D1/NeuN/MAP2 triple immunofluorescence; format: cell-based; design: induction of CCR in primary neuron cultures: dose or concentration left out as unconfirmed
Procedure: Cortical neuron cultures derived from E17/18 wild type C57/BL6 mouse embryos prepared and maintained as described previously. Cultures were maintained for 16-18 days prior to experimental manipulations.
20 μl aliquots were stored at −80° C. until ready to use. To prepare oligomers, an aliquot was dried in a speed vac for 3 hours, solubilized in 1 mM in dimethyl sulfoxide (Sigma, D2650-5X5ML), placed in a water bath sonicator for 5 minutes, and then supplemented with Neurobasal medium (GIBCO/Life Technologies, 21103-049) to yield a final peptide concentration of 100 μM. The solution was then placed on an orbiting rocker at 4° C. for 48 hours, after which it was centrifuged at 14,000×g in a tabletop microcentrifuge for 15 minutes to pellet large aggregates.
All steps were performed at room temperature unless indicated otherwise. Primary mouse cortical neurons grown on #1.5 thickness, 12 mm round glass coverslips were rinsed once with ice-cold phosphate buffered saline (PBS), and then were fixed in 4% paraformaldehyde in PBS for 12 minutes. Following fixation, the cells were rinsed 3 times for 5 minutes each with ice cold PBS, permeabilized for 15 minutes with PBS containing 0.2% Triton X-100 (Fisher, 9002-93-1), and rinsed 3 times for 5 minutes each with PBS. Next, the cells were blocked with PBST (PBS supplemented with 2% bovine serum albumin (BSA; Roche, 03116956001); and 0.1% Tween 20 (Fisher, 9005-64-5) for 1 hour, after which they were labeled overnight with primary antibodies followed by secondary antibodies for 1 hour. Antibodies were diluted into 2% BSA in PBS, and after each antibody incubation step the cells were rinsed 3 times for 5 minutes each with PBS. Finally, the coverslips were rinsed with ultrapure water and mounted onto slides using Fluormount-G (Southern Biotech, 0100-01) containing 1% 1,4-diazabicyclo[2.2.2]octane (Sigma, D27802-25MG), an anti-quenching agent.
(§1) Cultured neurons and brain sections were imaged on either of two microscopes: 1) Nikon Eclipse Ti equipped with a Yokogawa CSU-X1 spinning disk head, 20×0.75 NA CFI Plan Apo, 40×1.3 NA CFI S Fluor and 60×1.4 NA Plan Apo objectives; 405 nm, 488 nm, 561 nm and 640 nm lasers; and a Hamamatsu Flash 4.0 scientific CMOS camera; or 2) EVOS FL imaging system (Invitrogen). Micrographs were captured using either Nikon Elements or EVOS software. CCR-positive cells were counted using the ImageJ cell counter plugin for brain sections (available at an NIH website), and were counted manually using the EVOS microscope for primary neuron cultures. For cultured neurons (FIGS. 1-4, S5 and S2), 4 biological replicates of >300 neurons were counted per condition per experiment.
To test the hypothesis that neuronal CCR is calcium-dependent we first treated primary mouse cortical neurons with BAPTA-AM, a cell-permeant chelator of intracellular calcium, beginning 30 minutes prior to addition of AβOs to the cultures.
Accordingly, primary neuron cultures were treated with MK-801, an NMDAR inhibitor that blocks calcium entry through the channel pore, beginning 30 minutes before AβOs were added. […] Otherwise identical experiments were performed using 6-cyano-7-nitroquinoxaline-2,3-dione (CNQX) to block plasma membrane AMPA receptors (FIG. 7), 2-aminoethoxydiphenyl borate (2-ABP) to block ER-associated IP3 receptors and TRP channels (FIG. 8), or dantrolene to inhibit ER-associated ryanodine receptors (FIG. 8).

Tg2576 AD model mice = assay: neuronal CCR in vivo, cyclin D1-positive cortical neurons in brain sections after memantine in drinking water; design: species or system mouse; settings: memantine ~30 mg/kg/day in drinking water from 3 weeks until 2 months of age
Procedure: Brain tissue sections were obtained from mice that were transcardially perfused first with 10 ml of phosphate buffer (PB; 0.1 M sodium phosphate, pH 7.6), followed by 10 ml of 4% paraformaldehyde in PB at a flow rate of 1.5 ml/minute. Next, brains were removed and placed in 4% paraformaldehyde in PB for 24 hours, washed 3 times in PBS, incubated in 30% sucrose overnight, and flash frozen using dry ice. Frozen tissue was stored at −80° C. until ready for sectioning to 40 μm thickness on a Microm HM 505 E cryostat. […]
as §1, with “Micrographs were captured using either Nikon Elements or EVOS software.” left out, “experiment. […]” for “experiment.”

[2] = cited from earlier work
CaMKII = assay: phospho-activated versus total CaMKII by western blotting of AβO-treated cortical neurons; format: cell-based, mouse; settings: 10 μM MK-801, 30 minute pre-treatment; 15 minutes after AβO addition
Procedure: Samples were resolved on 12% SDS polyacrylamide gels, then transferred at 100 V for 1.75 hours onto 0.22 μm pore size nitrocellulose membranes using a Bio-Rad Mini-PROTEAN Tetra Electrophoresis Cell. Following transfer, blots were rinsed once in tris-buffered saline (TBS), blocked for 30-60 minutes in blocking buffer (LI-COR, 927-50000), sequentially incubated in primary antibodies overnight at 4° C. in antibody buffer (1:1 mix of blocking buffer, and TBST: TBS+0.1% Tween-20), then LI-COR infrared-labeled secondary antibodies for 30 minutes. Blots were rinsed 3 times for 5 minutes each using TBST after the primary antibody or TBS after the secondary antibody. Finally, membranes were scanned using a LI-COR Odyssey imaging station.
CaMKII is of particular interest, as it can be activated via calcium influx through NMDAR. We thus tested the hypothesis that AβO-mediated calcium influx through NMDAR activates CaMKII as a mediator of CCR. Again, we treated primary neurons with AβOs with or without a 30 minute MK-801 pre-treatment, and collected the cells at various time points from 0-2 hours after AβO stimulation for western blotting with antibodies to phospho-activated and total CaMKII. […] The AβO-mediated activation of CaMKII necessary for CCR [19] is therefore dependent upon calcium influx through NMDAR.

[3] = 10 μM, 30 minute pre-treatment, 16-18 hours AβOs

SMILES: O=C1CN(/N=C/c2ccc(-c3ccc([N+](=O)[O-])cc3)o2)C(O)=N1 [dantrolene]
- AβO-induced neuronal CCR (cyclin D1-positive neurons) ([1]; 20 μM dantrolene to block ryanodine receptors, 18 hours AβOs): none of those inhibitors blocked CCR

SMILES: CC12CC3CC(C)(C1)CC(N)(C3)C2 [memantine, 1-amino-3,5-dimethyladamantane hydrochloride]
- AβO-induced neuronal CCR (cyclin D1-positive neurons) [1, 3]: prevented AβOs from inducing neuronal CCR
- neuronal CCR along cortical regions (cyclin D1 immunoreactivity) (Tg2576 AD model mice; Tg2576 mice (untreated 8.8%)): reduced to WT levels
- neuronal CCR along cortical regions (cyclin D1 immunoreactivity) (Tg2576 AD model mice; WT mice): 1.6%
- solubility in water [2]: soluble in water

SMILES: CN[C@H](CC(=O)O)C(=O)O [NMDA]
- induction of CCR in primary neuron cultures ([1]; 30 second shock of NMDA, no AβOs): induces CCR

SMILES: NCCOB(c1ccccc1)c1ccccc1 [2-ABP, 2-aminoethoxydiphenyl borate]
- AβO-induced neuronal CCR (cyclin D1-positive neurons) ([1]; 50 μM 2-APB to block IP3 receptors, 18 hours AβOs): none of those inhibitors blocked CCR

SMILES: CC(=O)OCOC(=O)CN(CC(=O)OCOC(C)=O)c1ccccc1OCCOc1ccccc1N(CC(=O)OCOC(C)=O)CC(=O)OCOC(C)=O [BAPTA-AM, 1,2-Bis(2-aminophenoxy)ethane-N,N,N′,N′-tetraacetic acid tetrakis(acetoxymethyl ester)]
- AβO-induced neuronal CCR (cyclin D1-positive neurons) [1, 3]: prevented

SMILES: N#Cc1cc2c(cc1[N+](=O)[O-])=NC(=O)C(=O)N=2 [CNQX, 6-cyano-7-nitroquinoxaline-2,3-dione]
- AβO-induced neuronal CCR (cyclin D1-positive neurons) [1, 3]: none of those inhibitors blocked CCR

SMILES: C[C@]12N[C@H](Cc3ccccc31)c1ccccc12 [MK-801, (1S,9R)-1-methyl-16-azatetracyclo[7.6.1.02,7.010,15]hexadeca-2,4,6,10,12,14-hexaene]
- AβO-induced neuronal CCR (cyclin D1-positive neurons) [1, 3]: blocked the induction of CCR
- AβO-mediated transient activation of CaMKII (phosphorylated relative to total CaMKII) (CaMKII): activation was prevented
